Test results from patent publication US20230172897A1, “METHODS OF TREATING BREAST CANCERS WITH SELECTIVE ANDROGEN RECEPTOR MODULATORS AND ADDITIONAL THERAPEUTIC AGENTS” (VERU, INC., priority 2021, published 2023).

Key:
ERα, ERβ, GR, or MR = test: Cross-reactivity with other nuclear hormone receptors (summary); type: cell-based, Rat; settings: agonist and antagonist mode
Description: In order to determine whether SARM compounds of Formulae I-XIV as described hereinaffected other nuclear hormone receptor signaling, the ability of a compound represented by Formula VIII to stimulate (agonist) or inhibit (antagonist) ERα-, ERβ-, GR-, PR-, or MR-mediated transcriptional activation, was analyzed.
Rat GR, MR, PR, ER-α and ER-β were individually cloned into a pCR3.1 vector backbone. Sequencing was performed to verify the absence of any mutations. HEK-293 cells were plated at 90,000 cells per well of a 24 well plate in Dulbecco's Minimal Essential Media supplemented with 5% charcoal-stripped FBS. The cells were transfected using Lipofectamine (Invitrogen, Carlsbad, Calif.) with 0.25 μg GRE-LUC for GR, MR and PR and ERE-LUC for ER-α and ER-β, 0.5 ng CMV-LUC (renilla luciferase) and 12.5-25 ng of the respective expression vector for each receptor. […] Luciferase assays were performed 48 h after transfection. Transcriptional activation values are represented as firefly luciferase normalized to renilla luciferase.

[1] = tested on: MDA-MB-231 breast cancer cells stably transfected with AR; test: Proliferation (Coulter counter) of MDA-MB-231 cells stably transfected with AR; type: cell-based; settings: 6 days
Description: MDA-MB-231 cells stably transfected with AR using lentivirus were treated with the indicated ligands for 6 days and the number of cells counted using Coulter counter.

AR = target: T1, AR (Homo sapiens, UniProt P10275); test: AR transactivation (GRE-LUC) in HEK-293 or MDA-MB-231 cells; type: cell-based; design: expressed in transfected cells; settings: cells transfected with AR
T1 sequence (P10275 1-920): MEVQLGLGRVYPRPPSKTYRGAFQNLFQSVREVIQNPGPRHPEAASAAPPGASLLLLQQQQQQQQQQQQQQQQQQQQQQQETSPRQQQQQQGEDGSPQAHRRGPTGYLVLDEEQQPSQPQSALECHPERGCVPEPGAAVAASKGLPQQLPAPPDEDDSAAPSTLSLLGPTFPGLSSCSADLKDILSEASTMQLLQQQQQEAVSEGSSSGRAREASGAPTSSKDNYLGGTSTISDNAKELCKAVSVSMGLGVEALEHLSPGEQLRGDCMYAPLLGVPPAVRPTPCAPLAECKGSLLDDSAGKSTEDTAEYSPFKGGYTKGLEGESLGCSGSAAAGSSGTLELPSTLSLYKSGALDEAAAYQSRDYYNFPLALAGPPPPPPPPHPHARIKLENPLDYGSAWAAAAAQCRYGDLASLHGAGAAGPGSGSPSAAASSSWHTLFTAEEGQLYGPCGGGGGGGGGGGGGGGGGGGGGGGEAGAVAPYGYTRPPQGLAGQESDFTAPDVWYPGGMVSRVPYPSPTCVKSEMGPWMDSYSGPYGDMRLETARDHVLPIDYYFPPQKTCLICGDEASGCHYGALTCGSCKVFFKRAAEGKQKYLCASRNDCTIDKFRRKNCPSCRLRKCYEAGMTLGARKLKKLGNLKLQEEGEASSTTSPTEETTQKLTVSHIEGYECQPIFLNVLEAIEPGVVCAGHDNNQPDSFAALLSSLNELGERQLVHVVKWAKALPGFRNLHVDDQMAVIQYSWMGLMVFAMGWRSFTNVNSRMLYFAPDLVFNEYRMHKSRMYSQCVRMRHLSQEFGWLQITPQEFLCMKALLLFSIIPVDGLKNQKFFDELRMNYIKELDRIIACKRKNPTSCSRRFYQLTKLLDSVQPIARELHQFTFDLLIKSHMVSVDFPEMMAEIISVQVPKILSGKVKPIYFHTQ
Description: Though AR transactivation assay was performed in HEK-293 cells, the ability of ligands to function as agonists or antagonists depends on cellular microenvironment. […] The cells were treated 24 h after transfection and luciferase assay performed 48 h after transfection.

[2] = tested on: MDA-MB-231-AR triple negative breast cancer cells; test: MDA-MB-231-AR xenograft in nude mice; type: in vivo; settings: for body weight / tumor weights: all doses
Description: MDA-MB-231-AR triple negative breast cancer cells (2 million cells/mouse; MDA-MB-231 cells stably transfected with AR using lentivirus) were mixed with matrigel (1:1) and injected subcutaneously into the flanks of intact female nude mice (n=5/group). When the tumors reached 150-200 mm^3, the animals were separated into two groups, one receiving vehicle and the other receiving 30 mg/kg Formula VIII orally. Tumor volume was measured thrice weekly and % tumor growth inhibition (TGI) was calculated. At the end of 35 days of treatment, the animals were sacrificed, tumors excised, weighed, and collected for various analyses. Blood was collected and serum separated for drug concentration measurement.

MDA-MB-231-AR cells = test: Morphology of MDA-MB-231 cells stably transfected with AR; type: cell-based; settings: 3 days
Description: MDA-MB-231 cells were stably transfected with AR using lentivirus. […] Live cells were visualized using a light-microscope and photographed. The cells were imaged at the same magnification and under the same microscopic conditions.
MDA-MB-231 cells were stably transfected with AR using lentivirus and were treated with vehicle or AR agonists at the indicated concentrations. At the end of 3 days of incubation, the cells were imaged under a microscope (40×).

Row | Structure (SMILES) | receptor-mediated transactivation of ERα, ERβ, GR, or MR (ERα, ERβ, GR, or MR) | proliferation of MDA-MB-231 cells stably transfected with AR [1] | AR function (agonist/antagonist) in transactivation (AR) | body weight [2] | tumor weights [2] | TGI ([2]; all doses tried: 5, 10, 30 mg per kg) [%] | morphology of MDA-MB-231-AR cells (more anchorage-dependent phenotype) (MDA-MB-231-AR cells) | uterus weight ([2]; 30 mg/kg orally) | reduction of tumor weights ([2]; 30 mg/kg orally, 35 days) | toxicity / body weight ([2]; 30 mg/kg orally, 35 days) | tumor growth inhibition (TGI) ([2]; 30 mg/kg orally, 35 days) [%] | TGI ([2]; all doses tried: 5, 10 mg per kg) [%]
1 | C[C@](O)(COc1ccc(C#N)cc1)C(=O)Nc1ccc(C#N)c(C(F)(F)F)c1 [Formula IX, (S)—N-(4-Cyano-3-(trifluoromethyl)phenyl)-3-(4-cyanophenoxy)-2-hydroxy-2-methylpropanamide] | do not stimulate or inhibit | inhibited the proliferation | agonists | increase of body weight | reduced | ~85 | altered the morphology |  |  |  |  | 
2 | C[C@](O)(COc1ccc(C#N)cc1)C(=O)Nc1ccc(C#N)c(Cl)c1 [Formula VIII, (S)—N-(3-chloro-4-cyanophenyl)-3-(4-cyanophenoxy)-2-hydroxy-2-methylpropanamide] | do not stimulate or inhibit | inhibited the proliferation | agonists | increase of body weight | reduced |  | altered the morphology | increased | more than 50% | without any associated toxicity or changes in body weight | ~75 | ~85
